# Target: T1, MAGL (Homo sapiens, UniProt Q99685)
# T1 sequence (Q99685 1-303): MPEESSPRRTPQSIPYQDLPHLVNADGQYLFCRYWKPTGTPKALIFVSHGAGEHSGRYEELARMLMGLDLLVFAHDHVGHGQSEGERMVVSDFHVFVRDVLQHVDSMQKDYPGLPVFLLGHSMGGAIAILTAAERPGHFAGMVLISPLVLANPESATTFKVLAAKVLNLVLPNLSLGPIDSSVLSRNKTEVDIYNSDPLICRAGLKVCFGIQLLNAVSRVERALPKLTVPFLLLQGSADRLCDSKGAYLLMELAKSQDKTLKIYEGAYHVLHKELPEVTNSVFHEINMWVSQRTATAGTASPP
# Assay: MAGL inhibition, 2-AG assay (hydrolysis of 2-arachidonoylglycerol, arachidonic acid by mass spectrometry)
# Assay type: biochemical
# Settings: 2-AG assay (footnote [b])
# In short: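 Human MAGL […] was preincubated 15 min at RT with compound ([…], 3-fold steps) in 50 mM Tris, 1 mM EDTA, 0.01% Tween. 2-AG (8 μM) was then added for 30 min at RT. Arachidonic acid was quantified by RapidFire SPE–triple quadrupole MS in negative ESI as its ratio to a d8-arachidonic acid standard.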
row,Compound,IC50 [nM]
1,CS(=O)(=O)c1ccc(-c2ccc(C3CN(C(=O)N4CC[C@@H]5OCC(=O)N[C@@H]5C4)C3)cc2)c(Cl)c1 [Example 155],0.8
2,"O=C1CO[C@H]2CCN(C(=O)N3CC(c4ccc(N5CC(F)(F)C5)cc4)C3)C[C@H]2N1 [Example 156, (4aR,8aS)-6-(3-(4-(3,3-Difluoroazetidin-1-yl)phenyl)azetidine-1-carbonyl)hexahydro-2H-pyrido[4,3-b][1,4]oxazin-3(4H)-one]",24
3,"O=C1CO[C@H]2CCN(C(=O)N3CCC(c4ccc(Br)cc4)CC3)C[C@H]2N1 [Example 157, (4aR,8aS)-6-(4-(4-Bromophenyl)piperidine-1-carbonyl)hexahydro-2H-pyrido[4,3-b][1,4]oxazin-3(4H)-one]",289
4,"O=C1CO[C@H]2CCN(C(=O)N3CC(c4ccc(OCC(F)(F)F)cc4)C3)C[C@H]2N1 [Example 158, (4aR,8aS)-6-[3-[4-(2,2,2-Trifluoroethoxy)phenyl]azetidine-1-carbonyl]-4,4a,5,7,8,8a-hexahydropyrido[4,3-b][1,4]oxazin-3-one]",7
5,"N#Cc1cc(Cl)ccc1-c1ccc(C2CN(C(=O)N3CC[C@@H]4OCC(=O)N[C@@H]4C3)C2)cc1 [Example 159, 2-[4-[1-[(4aR,8aS)-3-Oxo-4,4a,5,7,8,8a-hexahydropyrido[4,3-b][1,4]oxazine-6-carbonyl]azetidin-3-yl]phenyl]-5-chloro-benzonitrile]",0.1
6,"O=C1CO[C@H]2CCN(C(=O)N3CC(c4ccc(N5CCCC5C(F)(F)F)cc4)C3)C[C@H]2N1 (stereo partly drawn) [Example 162, (4aR,8aS)-6-(3-(4-(2-(Trifluoromethyl)pyrrolidin-1-yl)phenyl)azetidine-1-carbonyl)hexahydro-2H-pyrido[4,3-b][1,4]oxazin-3(4H)-one]",0.3
7,"O=C1CO[C@H]2CCN(C(=O)N3CC(c4ccc(N5CCC(C(F)(F)F)C5)cc4)C3)C[C@H]2N1 (stereo partly drawn) [Example 163, (4aR,8aS)-6-(3-(4-(3-(Trifluoromethyl)pyrrolidin-1-yl)phenyl)azetidine-1-carbonyl)hexahydro-2H-pyrido[4,3-b][1,4]oxazin-3(4H)-one]",0.7
8,"O=C1CO[C@H]2CCN(C(=O)N3CCC(c4cccc(Br)c4)C3)C[C@H]2N1 (stereo partly drawn) [Example 164, (4aR,8aS)-6-(3-(3-Bromophenyl)pyrrolidine-1-carbonyl)hexahydro-2H-pyrido[4,3-b][1,4]oxazin-3(4H)-one]",82
9,"CCC1CCCN1c1ccc(C2CN(C(=O)N3CC[C@@H]4OCC(=O)N[C@@H]4C3)C2)cc1 (stereo partly drawn) [Example 165, (4aR,8aS)-6-[3-[4-(2-Ethylpyrrolidin-1-yl)phenyl]azetidine-1-carbonyl]-4,4a,5,7,8,8a-hexahydropyrido[4,3-b][1,4]oxazin-3-one]",0.4
10,"N#Cc1cccc(Cl)c1-c1ccc(C2CN(C(=O)N3CC[C@@H]4OCC(=O)N[C@@H]4C3)C2)cc1 [Example 166, 2-[4-[1-[(4aR,8aS)-3-Oxo-4,4a,5,7,8,8a-hexahydropyrido[4,3-b][1,4]oxazine-6-carbonyl]azetidin-3-yl]phenyl]-3-chloro-benzonitrile]",0.1
11,"O=C1CO[C@H]2CCN(C(=O)N3CC(c4ccc(N5CCCC5C5CC5)cc4)C3)C[C@H]2N1 (stereo partly drawn) [Example 167, (4aR,8aS)-6-(3-(4-(2-Cyclopropylpyrrolidin-1-yl)phenyl)azetidine-1-carbonyl)hexahydro-2H-pyrido[4,3-b][1,4]oxazin-3(4H)-one]",0.2
12,"O=C1CO[C@H]2CCN(C(=O)N3CCN(c4ccc(Br)cc4)CC3)C[C@H]2N1 [Example 168, (4aR,8aS)-6-(4-(4-Bromophenyl)piperazine-1-carbonyl)hexahydro-2H-pyrido[4,3-b][1,4]oxazin-3(4H)-one]",3700
13,"O=C1CO[C@H]2CCN(C(=O)N3CCC(c4ccc(-c5ccc(Cl)cc5Cl)cc4)CC3)C[C@H]2N1 [Example 169, (4aR,8aS)-6-(4-(2′,4′-Dichloro-[1,1′-biphenyl]-4-yl)piperidine-1-carbonyl)hexahydro-2H-pyrido[4,3-b][1,4]oxazin-3(4H)-one]",4
14,"O=C1CO[C@H]2CCN(C(=O)N3CC(c4ccc(N5CC6CC6C5)cc4)C3)C[C@H]2N1 (stereo partly drawn) [Example 170, (4aR,8aS)-6-(3-(4-(3-Azabicyclo[3.1.0]hexan-3-yl)phenyl)azetidine-1-carbonyl)hexahydro-2H-pyrido[4,3-b][1,4]oxazin-3(4H)-one]",2
15,"O=C1CO[C@H]2CCN(C(=O)N3CC(c4cccc(OC(F)(F)F)c4)C3)C[C@H]2N1 [Example 171, (4aR,8aS)-6-(3-(3-(Trifluoromethoxy)phenyl)azetidine-1-carbonyl)hexahydro-2H-pyrido[4,3-b][1,4]oxazin-3(4H)-one]",44
16,"O=C1CO[C@H]2CCN(C(=O)N3CC(c4ccc(N5CC(OCC(F)(F)F)C5)cc4)C3)C[C@H]2N1 [Example 172, (4aR,8aS)-6-(3-(4-(3-(2,2,2-Trifluoroethoxy)azetidin-1-yl)phenyl)azetidine-1-carbonyl)hexahydro-2H-pyrido[4,3-b][1,4]oxazin-3(4H)-one]",4
17,"CS(=O)(=O)c1cc(Cl)ccc1-c1ccc(C2CN(C(=O)N3CC[C@@H]4OCC(=O)N[C@@H]4C3)C2)cc1 [Example 173, (4aR,8aS)-6-(3-(4′-Chloro-2′-(methylsulfonyl)-[1,1′-biphenyl]-4-yl)azetidine-1-carbonyl)hexahydro-2H-pyrido[4,3-b][1,4]oxazin-3(4H)-one]",0.4
18,"O=C1CO[C@H]2CCN(C(=O)N3CC(c4ccc(N5CCCC5C(F)(F)F)nc4)C3)C[C@H]2N1 (stereo partly drawn) [Example 174, (4aR,8aS)-6-(3-(6-(2-(Trifluoromethyl)pyrrolidin-1-yl)pyridin-3-yl)azetidine-1-carbonyl)hexahydro-2H-pyrido[4,3-b][1,4]oxazin-3(4H)-one]",7

# The next lines start with the values.
row,IC50 [nM],Compound
1,1,"O=C1CO[C@H]2CCN(C(=O)N3CC(c4ccc(N5CCC6(CC6)C5)cc4)C3)C[C@H]2N1 [Example 179, (4aR,8aS)-6-(3-(4-(5-Azaspiro[2.4]heptan-5-yl)phenyl)azetidine-1-carbonyl)hexahydro-2H-pyrido[4,3-b][1,4]oxazin-3(4H)-one]"
2,9,"O=C1CO[C@H]2CCN(C(=O)N3CC(c4ccc(S(F)(F)(F)(F)F)cc4)C3)C[C@H]2N1 [Example 180, (4aR,8aS)-6-(3-(4-(Pentafluoro-16-sulfaneyl)phenyl)azetidine-1-carbonyl)hexahydro-2H-pyrido[4,3-b][1,4]oxazin-3(4H)-one]"
3,593,"O=C1CO[C@H]2CCN(C(=O)N3CC(c4ccc(Cl)cn4)C3)C[C@H]2N1 [Example 181, (4aR,8aS)-6-(3-(5-Chloropyridin-2-yl)azetidine-1-carbonyl)hexahydro-2H-pyrido[4,3-b][1,4]oxazin-3(4H)-one]"
4,8,"O=C1CO[C@H]2CCN(C(=O)N3CC(c4ccc(OC(F)(F)F)cc4F)C3)C[C@H]2N1 [Example 182, (4aR,8aS)-6-(3-(2-Fluoro-4-(trifluoromethoxy)phenyl)azetidine-1-carbonyl)hexahydro-2H-pyrido[4,3-b][1,4]oxazin-3(4H)-one]"
5,1600,"COc1ccc(C2CN(C(=O)N3CC[C@@H]4OCC(=O)N[C@@H]4C3)C2)cn1 [Example 183, (4aR,8aS)-6-[3-(6-Methoxypyridin-3-yl)azetidine-1-carbonyl]-4,4a,5,7,8,8a-hexahydropyrido[4,3-b][1,4]oxazin-3-one]"
6,146,"O=C1CO[C@H]2CCN(C(=O)N3CCC(c4ccc(Br)cc4)C3)C[C@H]2N1 (stereo partly drawn) [Example 184, (4aR,8aS)-6-(3-(4-Bromophenyl)pyrrolidine-1-carbonyl)hexahydro-2H-pyrido[4,3-b][1,4]oxazin-3(4H)-one]"
7,139,"O=C1CO[C@H]2CCN(C(=O)N3CC(c4ccccc4)C3)C[C@H]2N1 [Example 185, (4aR,8aS)-6-(3-Phenylazetidine-1-carbonyl)hexahydro-2H-pyrido[4,3-b][1,4]oxazin-3(4H)-one]"
8,1000,"O=C1CO[C@H]2CCN(C(=O)N3CCC(c4ccccc4)CC3)C[C@H]2N1 [Example 186, (4aR,8aS)-6-(4-Phenylpiperidine-1-carbonyl)hexahydro-2H-pyrido[4,3-b][1,4]oxazin-3(4H)-one]"
9,1,"O=C1CO[C@H]2CCN(C(=O)N3CC(c4ccc(CC(F)(F)F)cc4)C3)C[C@H]2N1 [Example 187, (4aR,8aS)-6-[3-[4-(2,2,2-Trifluoroethyl)phenyl]azetidine-1-carbonyl]-4,4a,5,7,8,8a-hexahydropyrido[4,3-b][1,4]oxazin-3-one]"
10,4,"O=C1CO[C@H]2CCN(C(=O)N3CC(c4ccc(C5(C(F)(F)F)CC5)cc4)C3)C[C@H]2N1 [Example 188, (4aR,8aS)-6-[3-[4-[1-(Trifluoromethyl)cyclopropyl]phenyl]azetidine-1-carbonyl]-4,4a,5,7,8,8a-hexahydropyrido[4,3-b][1,4]oxazin-3-one]"
11,0.5,"O=C1CO[C@H]2CCN(C(=O)N3CC(c4ccc(N5CC6(C5)CC(F)(F)C6)cc4)C3)C[C@H]2N1 [Example 191, (4aR,8aS)-6-[3-[4-(6,6-Difluoro-2-azaspiro[3.3]heptan-2-yl)phenyl]azetidine-1-carbonyl]-4,4a,5,7,8,8a-hexahydropyrido[4,3-b][1,4]oxazin-3-one]"
